Reference: PubChem BioAssay AID493064 (Broad Institute, 2011)
Where “and” joins values, the source holds several entries; their conditions need not be identical. Equal entries are not always repeated. Inconclusive results are not listed. Calls of active or inactive are those of the source. No rule for the calls is given here.

Test system: C. albicans CaCi-8 + fluconazole, Alamar Blue growth, 48 h
Experiment: PubChem AID 493064
Settings: not given

Structure (SMILES)	AC50
COc1ccc(C(=O)N2CCN(c3ccccn3)CC2)cc1	7.53 µM
CC1CCN(C(=O)Cn2c3ccccc3c3nc4n(c(=O)c32)CCS4)CC1	8.88 µM
O=C(O)c1nn(Cc2ccc(Cl)cc2)c2ccccc12	> 26 µM (inactive)
N#Cc1ccc(N2CCN(C(=O)c3ccc(Cl)cc3)CC2)nc1	> 26 µM (inactive)
O=C(Cn1nc(-c2ccccc2)c2cc(Cl)ccc21)N1CCOCC1	> 26 µM (inactive)
O=C(c1ccc(Cl)cc1)N1CCN(c2nc3ccccc3s2)CC1	4.94 µM
COC(=O)Cn1nc(-c2ccccc2)c2ccccc21	3.13 µM

Test system: not listed separately
Experiment: PubChem AID 493064
Settings: C. albicans CaCi-8 + fluconazole, Alamar Blue growth, 48 h; at 26 µM (top of the series)

Structure (SMILES)	activity change, negative = inhibition
CCOC(=O)c1c2ccccc2nn1Cc1ccc(Cl)cc1	5.94% (inactive)
O=C(Cn1c2ccc(F)cc2c2nc3n(c(=O)c21)CCS3)N1CCCCC1	8.36% (inactive)
O=C(c1ccc(Cl)cc1)N1CCN(c2cccc(C(F)(F)F)n2)CC1	-8.21% (inactive)
CCN(CC)C(=O)Cn1c2ccccc2c2nc3n(c(=O)c21)CCS3	8.8% (inactive) and 7.89% (inactive)
Cc1ccnc(N2CCN(C(=O)c3ccc(Cl)cc3)CC2)c1	-6.71% (inactive)
CC(C)C(=O)N1CCN(c2ccccn2)CC1	-2.77% (inactive)
O=C(c1cccc(Cl)c1)N1CCN(c2ccccn2)CC1	-1.33% (inactive)
O=C(Cn1nc(-c2ccccc2)c2ccccc21)NCc1ccc(Cl)cc1	-6.6% (inactive)
CCCCC(=O)N1CCN(c2ccccn2)CC1	-12.5% (inactive)
O=C(O)Cn1nc(-c2ccccc2)c2ccccc21	-17.8% (inactive)
COC(=O)Cn1c(-c2ccccc2)nc2ccccc21	-13.8% (inactive)
O=C(Cn1nc(C(=O)N2CCCCC2)c2ccccc21)N1CCOCC1	-1.16% (inactive)
COC(=O)Cn1nc(C)c2ccccc21	-17.2% (inactive)
